Data reported in PubChem BioAssay (NCI).
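Each compound was tested at five concentrations against cells in 96-well plates for 48 hours. TGI marks complete inhibition of growth.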

What was measured:
Experiment in all cases: NCI-60 cell line screen, 48 h
A549 NSCLC = system: A549 NSCLC
U251 CNS = system: U251 CNS
SK-OV-3 ovarian = system: SK-OV-3 ovarian
IGROV1 ovarian = system: IGROV1 ovarian
OVCAR-3 ovarian = system: OVCAR-3 ovarian
SF-539 CNS = system: SF-539 CNS
COLO 205 colon = system: COLO 205 colon
NCI/ADR-RES ovarian = system: NCI/ADR-RES ovarian
SF-268 CNS = system: SF-268 CNS
HT29 colon = system: HT29 colon
HCT-116 colon = system: HCT-116 colon
SN12C renal = system: SN12C renal
M14 melanoma = system: M14 melanoma
MALME-3M melanoma = system: MALME-3M melanoma
NCI-H226 lung = system: NCI-H226 lung
T-47D breast = system: T-47D breast
MCF7 breast = system: MCF7 breast
HOP-62 NSCLC = system: HOP-62 NSCLC
SNB-19 CNS = system: SNB-19 CNS
UACC-257 melanoma = system: UACC-257 melanoma
SW-620 colon = system: SW-620 colon
SK-MEL-28 melanoma = system: SK-MEL-28 melanoma
UO-31 renal = system: UO-31 renal
BT-549 breast = system: BT-549 breast
HOP-92 NSCLC = system: HOP-92 NSCLC
NCI-H23 lung = system: NCI-H23 lung
SF-295 CNS = system: SF-295 CNS
MDA-N = system: MDA-N
SK-MEL-5 melanoma = system: SK-MEL-5 melanoma
UACC-62 melanoma = system: UACC-62 melanoma
HS 578T breast = system: HS 578T breast
ACHN renal = system: ACHN renal
CCRF-CEM leukemia = system: CCRF-CEM leukemia
SNB-75 CNS = system: SNB-75 CNS
MOLT-4 leukemia = system: MOLT-4 leukemia
PC-3 prostate = system: PC-3 prostate
RXF 393 renal = system: RXF 393 renal
DU-145 prostate = system: DU-145 prostate
HCC-2998 colon = system: HCC-2998 colon
EKVX NSCLC = system: EKVX NSCLC
NCI-H460 lung = system: NCI-H460 lung
HCT-15 colon = system: HCT-15 colon
SR leukemia = system: SR leukemia
OVCAR-8 ovarian = system: OVCAR-8 ovarian
K-562 leukemia = system: K-562 leukemia
MDA-MB-231 breast = system: MDA-MB-231 breast
TK-10 renal = system: TK-10 renal
OVCAR-5 ovarian = system: OVCAR-5 ovarian
MDA-MB-435 = system: MDA-MB-435
KM12 colon = system: KM12 colon
SK-MEL-2 melanoma = system: SK-MEL-2 melanoma
786-0 renal = system: 786-0 renal
NCI-H522 lung = system: NCI-H522 lung
CAKI-1 renal = system: CAKI-1 renal
A498 renal = system: A498 renal
LOX IMVI melanoma = system: LOX IMVI melanoma
OVCAR-4 ovarian = system: OVCAR-4 ovarian
RPMI-8226 leukemia = system: RPMI-8226 leukemia
HL-60(TB) leukemia = system: HL-60(TB) leukemia

## CC(=O)Oc1ccc2c(c1)oc1c3ccc(OC(C)=O)cc3n(C)c(=O)c21
A549 NSCLC
  TGI: > 100 µM
U251 CNS
  TGI: > 100 µM
SK-OV-3 ovarian
  TGI: > 100 µM
IGROV1 ovarian
  TGI: > 100 µM
OVCAR-3 ovarian
  TGI: > 100 µM
SF-539 CNS
  TGI: > 100 µM
COLO 205 colon
  TGI: > 100 µM
NCI/ADR-RES ovarian
  TGI: 51.7 µM
SF-268 CNS
  TGI: 78.2 µM
HT29 colon
  TGI: > 100 µM
HCT-116 colon
  TGI: 48.7 µM
SN12C renal
  TGI: 66 µM
M14 melanoma
  TGI: > 100 µM
MALME-3M melanoma
  TGI: 31.1 µM
NCI-H226 lung
  TGI: 53.1 µM
T-47D breast
  TGI: > 100 µM
MCF7 breast
  TGI: > 100 µM
HOP-62 NSCLC
  TGI: > 100 µM
SNB-19 CNS
  TGI: > 100 µM
UACC-257 melanoma
  TGI: > 100 µM
SW-620 colon
  TGI: > 100 µM
SK-MEL-28 melanoma
  TGI: > 100 µM
UO-31 renal
  TGI: > 100 µM
BT-549 breast
  TGI: > 100 µM
HOP-92 NSCLC
  TGI: > 100 µM
NCI-H23 lung
  TGI: > 100 µM
SF-295 CNS
  TGI: > 100 µM
MDA-N
  TGI: > 100 µM
SK-MEL-5 melanoma
  TGI: 16.7 µM
UACC-62 melanoma
  TGI: > 100 µM
HS 578T breast
  TGI: > 100 µM
ACHN renal
  TGI: > 100 µM
CCRF-CEM leukemia
  TGI: > 100 µM
SNB-75 CNS
  TGI: 4.16 µM
MOLT-4 leukemia
  TGI: > 100 µM
PC-3 prostate
  TGI: > 100 µM
RXF 393 renal
  TGI: > 100 µM
DU-145 prostate
  TGI: > 100 µM
HCC-2998 colon
  TGI: 57.1 µM
EKVX NSCLC
  TGI: 70.8 µM
NCI-H460 lung
  TGI: > 100 µM
HCT-15 colon
  TGI: > 100 µM
SR leukemia
  TGI: > 100 µM
OVCAR-8 ovarian
  TGI: 79.3 µM
K-562 leukemia
  TGI: > 100 µM
MDA-MB-231 breast
  TGI: > 100 µM
TK-10 renal
  TGI: > 100 µM
OVCAR-5 ovarian
  TGI: > 100 µM
MDA-MB-435
  TGI: > 100 µM
KM12 colon
  TGI: 20.6 µM

## CCN(CC)CCNC(=O)c1ccc(I)cc1
A549 NSCLC
  TGI: > 100 µM
U251 CNS
  TGI: > 100 µM
SK-OV-3 ovarian
  TGI: > 100 µM
IGROV1 ovarian
  TGI: > 100 µM
OVCAR-3 ovarian
  TGI: > 100 µM
SF-539 CNS
  TGI: > 100 µM
SK-MEL-2 melanoma
  TGI: > 100 µM
COLO 205 colon
  TGI: > 100 µM
NCI/ADR-RES ovarian
  TGI: > 100 µM
SF-268 CNS
  TGI: > 100 µM
HT29 colon
  TGI: > 100 µM
HCT-116 colon
  TGI: > 100 µM
SN12C renal
  TGI: > 100 µM
M14 melanoma
  TGI: > 100 µM
786-0 renal
  TGI: > 100 µM
MALME-3M melanoma
  TGI: > 100 µM
NCI-H226 lung
  TGI: > 100 µM
T-47D breast
  TGI: > 100 µM
MCF7 breast
  TGI: > 100 µM
HOP-62 NSCLC
  TGI: > 100 µM
NCI-H522 lung
  TGI: > 100 µM
SNB-19 CNS
  TGI: > 100 µM
UACC-257 melanoma
  TGI: > 100 µM
CAKI-1 renal
  TGI: > 100 µM
SW-620 colon
  TGI: > 100 µM
SK-MEL-28 melanoma
  TGI: > 100 µM
UO-31 renal
  TGI: > 100 µM
BT-549 breast
  TGI: > 100 µM
HOP-92 NSCLC
  TGI: > 100 µM
NCI-H23 lung
  TGI: > 100 µM
SF-295 CNS
  TGI: > 100 µM
MDA-N
  TGI: > 100 µM
SK-MEL-5 melanoma
  TGI: > 100 µM
A498 renal
  TGI: 84.9 µM
HS 578T breast
  TGI: > 100 µM
ACHN renal
  TGI: > 100 µM
CCRF-CEM leukemia
  TGI: > 100 µM
LOX IMVI melanoma
  TGI: > 100 µM
SNB-75 CNS
  TGI: > 100 µM
MOLT-4 leukemia
  TGI: > 100 µM
PC-3 prostate
  TGI: > 100 µM
RXF 393 renal
  TGI: > 100 µM
OVCAR-4 ovarian
  TGI: > 100 µM
DU-145 prostate
  TGI: > 100 µM
HCC-2998 colon
  TGI: > 100 µM
EKVX NSCLC
  TGI: > 100 µM
NCI-H460 lung
  TGI: > 100 µM
RPMI-8226 leukemia
  TGI: > 100 µM
HCT-15 colon
  TGI: > 100 µM
SR leukemia
  TGI: > 100 µM
OVCAR-8 ovarian
  TGI: > 100 µM
K-562 leukemia
  TGI: > 100 µM
MDA-MB-231 breast
  TGI: > 100 µM
TK-10 renal
  TGI: > 100 µM
OVCAR-5 ovarian
  TGI: > 100 µM
MDA-MB-435
  TGI: > 100 µM
KM12 colon
  TGI: > 100 µM

## Cc1nc2c(nc1C)-c1c(c3c(n1C)C(=O)CCC3)C(=O)C2=O
A549 NSCLC
  TGI: 4.56 µM
U251 CNS
  TGI: 0.533 µM
SK-OV-3 ovarian
  TGI: 2.61 µM
IGROV1 ovarian
  TGI: 1.48 µM
OVCAR-3 ovarian
  TGI: 0.646 µM
SF-539 CNS
  TGI: 2.51 µM
SK-MEL-2 melanoma
  TGI: 1.29 µM
COLO 205 colon
  TGI: 3.46 µM
NCI/ADR-RES ovarian
  TGI: 2.05 µM
SF-268 CNS
  TGI: 1.22 µM
HT29 colon
  TGI: 3.89 µM
HCT-116 colon
  TGI: 1.44 µM
SN12C renal
  TGI: 0.52 µM
M14 melanoma
  TGI: 1.29 µM
786-0 renal
  TGI: 3.23 µM
MALME-3M melanoma
  TGI: 0.669 µM
NCI-H226 lung
  TGI: 2.77 µM
T-47D breast
  TGI: 0.0932 µM
MCF7 breast
  TGI: 0.358 µM
HOP-62 NSCLC
  TGI: 2.37 µM
NCI-H522 lung
  TGI: 1.6 µM
SNB-19 CNS
  TGI: 2.82 µM
UACC-257 melanoma
  TGI: 2.76 µM
CAKI-1 renal
  TGI: 0.286 µM
SW-620 colon
  TGI: 0.534 µM
SK-MEL-28 melanoma
  TGI: 1.88 µM
UO-31 renal
  TGI: 1.29 µM
BT-549 breast
  TGI: 0.289 µM
HOP-92 NSCLC
  TGI: 2.94 µM
NCI-H23 lung
  TGI: 2.85 µM
SF-295 CNS
  TGI: 3.71 µM
MDA-N
  TGI: 0.322 µM
SK-MEL-5 melanoma
  TGI: 0.844 µM
A498 renal
  TGI: 2.59 µM
UACC-62 melanoma
  TGI: 1.5 µM
HS 578T breast
  TGI: 9.62 µM
ACHN renal
  TGI: 1.66 µM
CCRF-CEM leukemia
  TGI: 0.524 µM
LOX IMVI melanoma
  TGI: 0.397 µM
SNB-75 CNS
  TGI: 2.14 µM
PC-3 prostate
  TGI: 3.14 µM
RXF 393 renal
  TGI: 0.474 µM
OVCAR-4 ovarian
  TGI: 0.279 µM
HL-60(TB) leukemia
  TGI: 0.508 µM
DU-145 prostate
  TGI: 2.44 µM
HCC-2998 colon
  TGI: 4.06 µM
EKVX NSCLC
  TGI: 2.65 µM
NCI-H460 lung
  TGI: 2.7 µM
RPMI-8226 leukemia
  TGI: 0.636 µM
HCT-15 colon
  TGI: 1.36 µM
SR leukemia
  TGI: 0.769 µM
OVCAR-8 ovarian
  TGI: 0.638 µM
K-562 leukemia
  TGI: > 100 µM
MDA-MB-231 breast
  TGI: 0.803 µM
TK-10 renal
  TGI: 4.51 µM
OVCAR-5 ovarian
  TGI: 2.72 µM
MDA-MB-435
  TGI: 0.353 µM
KM12 colon
  TGI: 5.81 µM
